Laboratory results published in the NIST ThermoML archive (doi:10.1021/je100909b).

Assay: mn = molality of the nth substance listed, in mol/kg
Conditions: 101 kPa, Liquid; for speed of sound: Sing-around technique in a fixed-path interferometer

NCC(=O)O [2-aminoacetic acid] + O
Conditions | speed of sound [m/s] | viscosity [mPa·s]
288.15 K, m1 = 0.05362 | 1468.9 | –
288.15 K, m1 = 0.06844 | – | 1.149
288.15 K, m1 = 0.1287 | 1473.1 | –
288.15 K, m1 = 0.1393 | – | 1.159
288.15 K, m1 = 0.191 | 1476.6 | –
288.15 K, m1 = 0.2522 | 1480.1 | –
288.15 K, m1 = 0.2552 | – | 1.176
288.15 K, m1 = 0.3423 | 1485.3 | –
288.15 K, m1 = 0.3468 | – | 1.19
288.15 K, m1 = 0.4241 | – | 1.202
288.15 K, m1 = 0.5002 | – | 1.213
288.15 K, m1 = 0.5062 | 1494.9 | –
288.15 K, m1 = 0.562 | 1498.1 | –
298.15 K, m1 = 0.05362 | 1499.5 | –
298.15 K, m1 = 0.06025 | – | 0.8979
298.15 K, m1 = 0.1223 | – | 0.9055
298.15 K, m1 = 0.1287 | 1503.4 | –
298.15 K, m1 = 0.191 | 1506.8 | –
298.15 K, m1 = 0.1933 | – | 0.9138
298.15 K, m1 = 0.2522 | 1510 | –
298.15 K, m1 = 0.2798 | – | 0.9248
298.15 K, m1 = 0.3423 | 1514.9 | –
298.15 K, m1 = 0.4145 | – | 0.942
298.15 K, m1 = 0.4859 | – | 0.9507
298.15 K, m1 = 0.5062 | 1523.9 | –
298.15 K, m1 = 0.562 | 1526.9 | –
308.15 K, m1 = 0.05362 | 1522.5 | –
308.15 K, m1 = 0.06295 | – | 0.7261
308.15 K, m1 = 0.1083 | 1525.3 | –
308.15 K, m1 = 0.1248 | – | 0.7325
308.15 K, m1 = 0.1664 | 1528.2 | –
308.15 K, m1 = 0.2476 | – | 0.7455
308.15 K, m1 = 0.263 | 1533.1 | –
308.15 K, m1 = 0.3345 | – | 0.7536
308.15 K, m1 = 0.3737 | 1538.8 | –
308.15 K, m1 = 0.4195 | – | 0.7624
308.15 K, m1 = 0.4709 | – | 0.7672
308.15 K, m1 = 0.4967 | 1545.2 | –
318.15 K, m1 = 0.05362 | 1539 | –
318.15 K, m1 = 0.06088 | – | 0.6017
318.15 K, m1 = 0.1248 | – | 0.6064
318.15 K, m1 = 0.1287 | 1542.7 | –
318.15 K, m1 = 0.191 | 1545.7 | –
318.15 K, m1 = 0.2476 | – | 0.6176
318.15 K, m1 = 0.2522 | 1548.7 | –
318.15 K, m1 = 0.3345 | – | 0.6253
318.15 K, m1 = 0.3423 | 1553.1 | –
318.15 K, m1 = 0.4195 | – | 0.6329
318.15 K, m1 = 0.4709 | – | 0.6356
318.15 K, m1 = 0.5062 | 1561.3 | –
318.15 K, m1 = 0.562 | 1564.1 | –

CCC(N)C(=O)O (stereo not drawn) [(.+-.)-α-aminobutyric acid] + O
Conditions | speed of sound [m/s] | viscosity [mPa·s]
288.15 K, m1 = 0.05062 | 1469.9 | –
288.15 K, m1 = 0.05106 | – | 1.159
288.15 K, m1 = 0.09089 | – | 1.181
288.15 K, m1 = 0.1107 | 1474.7 | –
288.15 K, m1 = 0.1764 | – | 1.22
288.15 K, m1 = 0.2175 | 1483.4 | –
288.15 K, m1 = 0.2253 | – | 1.242
288.15 K, m1 = 0.2685 | – | 1.262
288.15 K, m1 = 0.2738 | 1488 | –
288.15 K, m1 = 0.3587 | 1494.9 | –
288.15 K, m1 = 0.4044 | – | 1.324
288.15 K, m1 = 0.4523 | 1502.7 | –
298.15 K, m1 = 0.03245 | – | 0.8996
298.15 K, m1 = 0.05413 | – | 0.9064
298.15 K, m1 = 0.07577 | – | 0.9126
298.15 K, m1 = 0.108 | – | 0.9222
298.15 K, m1 = 0.1107 | 1505.2 | –
298.15 K, m1 = 0.1433 | – | 0.9326
298.15 K, m1 = 0.1888 | – | 0.9459
298.15 K, m1 = 0.2162 | – | 0.9534
298.15 K, m1 = 0.2175 | 1513.6 | –
298.15 K, m1 = 0.2738 | 1518 | –
298.15 K, m1 = 0.3587 | 1524.7 | –
298.15 K, m1 = 0.4523 | 1532.1 | –
308.15 K, m1 = 0.04831 | – | 0.731
308.15 K, m1 = 0.05062 | 1523.4 | –
308.15 K, m1 = 0.08861 | – | 0.7438
308.15 K, m1 = 0.1107 | 1527.7 | –
308.15 K, m1 = 0.1735 | – | 0.7667
308.15 K, m1 = 0.2175 | 1535.4 | –
308.15 K, m1 = 0.2198 | – | 0.7794
308.15 K, m1 = 0.2655 | – | 0.7915
308.15 K, m1 = 0.2738 | 1539.4 | –
308.15 K, m1 = 0.3587 | 1545.5 | –
308.15 K, m1 = 0.3962 | – | 0.8261
308.15 K, m1 = 0.4523 | 1552.3 | –
318.15 K, m1 = 0.04911 | – | 0.6052
318.15 K, m1 = 0.05062 | 1539.9 | –
318.15 K, m1 = 0.08886 | – | 0.6122
318.15 K, m1 = 0.1107 | 1544 | –
318.15 K, m1 = 0.1735 | – | 0.6267
318.15 K, m1 = 0.2175 | 1551.2 | –
318.15 K, m1 = 0.2196 | – | 0.6354
318.15 K, m1 = 0.2658 | – | 0.6432
318.15 K, m1 = 0.2738 | 1555.1 | –
318.15 K, m1 = 0.3587 | 1560.9 | –
318.15 K, m1 = 0.3964 | – | 0.6658
318.15 K, m1 = 0.4523 | 1567.3 | –

CC(N)C(=O)O (stereo not drawn) [DL-2-aminopropanoic acid] + O
Conditions | speed of sound [m/s] | viscosity [mPa·s]
288.15 K, m1 = 0.04982 | – | 1.153
288.15 K, m1 = 0.07777 | 1471.3 | –
288.15 K, m1 = 0.1109 | – | 1.172
288.15 K, m1 = 0.1126 | 1473.8 | –
288.15 K, m1 = 0.2059 | 1480.4 | –
288.15 K, m1 = 0.2183 | – | 1.204
288.15 K, m1 = 0.2612 | – | 1.217
288.15 K, m1 = 0.3107 | – | 1.231
288.15 K, m1 = 0.3139 | 1488.1 | –
288.15 K, m1 = 0.3825 | 1493 | –
288.15 K, m1 = 0.4409 | 1497.2 | –
288.15 K, m1 = 0.4536 | – | 1.272
288.15 K, m1 = 0.5099 | – | 1.29
298.15 K, m1 = 0.07777 | 1501.8 | –
298.15 K, m1 = 0.07866 | – | 0.9082
298.15 K, m1 = 0.1126 | 1504.1 | –
298.15 K, m1 = 0.1934 | – | 0.9331
298.15 K, m1 = 0.2059 | 1510.4 | –
298.15 K, m1 = 0.3139 | 1517.7 | –
298.15 K, m1 = 0.3188 | – | 0.9584
298.15 K, m1 = 0.3825 | 1522.3 | –
298.15 K, m1 = 0.4275 | – | 0.9832
298.15 K, m1 = 0.4409 | 1526.3 | –
298.15 K, m1 = 0.5485 | – | 1.013
298.15 K, m1 = 0.593 | – | 1.018
298.15 K, m1 = 0.7354 | – | 1.057
298.15 K, m1 = 0.8417 | – | 1.072
298.15 K, m1 = 0.9533 | – | 1.089
308.15 K, m1 = 0.04619 | – | 0.7279
308.15 K, m1 = 0.07777 | 1524.6 | –
308.15 K, m1 = 0.107 | – | 0.7391
308.15 K, m1 = 0.1126 | 1526.7 | –
308.15 K, m1 = 0.2059 | 1532.4 | –
308.15 K, m1 = 0.2145 | – | 0.7583
308.15 K, m1 = 0.2578 | – | 0.7656
308.15 K, m1 = 0.3071 | – | 0.7745
308.15 K, m1 = 0.3139 | 1539.1 | –
308.15 K, m1 = 0.3489 | – | 0.7816
308.15 K, m1 = 0.3825 | 1543.4 | –
308.15 K, m1 = 0.4409 | 1547 | –
308.15 K, m1 = 0.4983 | – | 0.8076
318.15 K, m1 = 0.04529 | – | 0.6029
318.15 K, m1 = 0.07777 | 1540.9 | –
318.15 K, m1 = 0.1064 | – | 0.6119
318.15 K, m1 = 0.1126 | 1542.8 | –
318.15 K, m1 = 0.2059 | 1548.2 | –
318.15 K, m1 = 0.2141 | – | 0.6275
318.15 K, m1 = 0.2564 | – | 0.6331
318.15 K, m1 = 0.3064 | – | 0.6409
318.15 K, m1 = 0.3139 | 1554.4 | –
318.15 K, m1 = 0.3492 | – | 0.647
318.15 K, m1 = 0.3825 | 1558.4 | –
318.15 K, m1 = 0.4205 | – | 0.6561
318.15 K, m1 = 0.4409 | 1561.8 | –
